Measured values reported in patent US20120302954A1, “EXPANDABLE DEVICES COATED WITH A PACLITAXEL COMPOSITION” (priority 2011, published 2012).
Values belong to the compound of their own block, whether it stands above or below them.

Legend:
[1] = Percent drug content change of coated cobalt-chromium 18 mm stent over 0 to 12 weeks (FIG. 1); assay type: physicochemical; settings: 0.02 weight percent BHT per total basecoat solids; 8 weeks and 12 weeks, ambient conditions (25° C.)
From the text: Referring to FIG. 1, there is illustrated in graphical format, the results of the same drug screening as described above with the solution applied to a cobalt-chromium, 18 mm stent. In this test, two sets of solution samples were utilized, one with sirolimus and polymer solution containing the antioxidant and one with sirolimus and polymer solution containing no antioxidant. The antioxidant utilized was 0.02 weight percent BHT per total basecoat solids. The test was utilized to determine the percent drug content change over a time period of 0 to 12 weeks under two conditions; namely, 40° C. with 75 percent relative humidity, and ambient conditions (25° C.).

[2] = Drug concentration in liquid formulations by liquid chromatography / HPLC; assay type: physicochemical
From the text: A series of liquid formulations were developed for the local or regional delivery of water insoluble compounds such as sirolimus and its analogs, including CCI-779, ABT-578 and everolimus, through weeping balloons and catheter injection needles. Sirolimus and its analogs are rapamycins. These liquid formulations increase the apparent solubility of the pharmacologically active but water insoluble compounds by two to four orders of magnitude as compared to the solubility limits of the compounds in water. These liquid formulations rely on the use of a very small amount of organic solvents such as Ethanol and a larger amount of safe amphiphilic (of or relating to a molecule having a polar, water soluble group attached to a non-polar, water insoluble […]) excipients such as polyethylene glycol (PEG 200, PEG 400) and vitamin E TPGS to enhance the solubility of the compounds. These liquid formulations of highly water insoluble compounds are stable and readily flowable at room temperature. Certain excipients, such as Vitamin E TPGS and BHT may be utilized to enhance the storage stability of sirolimus compounds through their anti-oxidation properties.
Table 7, shown below, summarizes the concentrations of the excipient, the co-solvents and the drug for four different liquid formulations. […]

[3] = Sirolimus tissue concentration in porcine coronary arteries by LC-MS; assay type: in vivo; settings: 50 mg/ml
Method: In accordance with a second experiment, the efficacy of a PTCA balloon coated with the 5 percent BHT solution was tested in a porcine injury model. The balloon coating formulation of sirolimus and BHT (5 percent BHT, w/w) was made according to the procedure described above. In total, three coating solutions of sirolimus and BHT (5 percent BHT, w/w) and one coating solution without BHT were prepared for the study. A standard CYPHER® Sirolimus-eluting Coronary Stent available from the Cordis Corporation was used as a control for the study. Both FIRE STAR® PTCA balloons (3.5 mm×20 mm, with total surface area of 220 mm^2) with hydrophilic treatment and the ones without a hydrophilic treatment were tested in the study. The final coating density of sirolimus and sirolimus loss during expansion were measured by HPLC. The tissue concentration in the porcine coronary arteries was measured by liquid chromatography-mass spectroscopy (LC-MS). The amount of intimal hyperplasia was determined by standard quantitative coronary angiography (QCA) at day 30.

[4] = Method: Table 9, shown below, summarizes a number of injectable liquid formulations of paclitaxel utilizing combinations of ethanol, PEG 400 and water. Specifically, the formulations set forth in Table 9 were made and analyzed for their concentrations of its various constituents. The concentrations are determined by liquid chromatography and are presented as weight by volume figures. The concentration of ethanol is preferably two or less percent so as to avoid ethanol becoming an active ingredient in the formulation.
Another aqueous liquid or injectable formulation of paclitaxel is made utilizing ethanol, PEG 400 and water, and ethanol, Vitamin E TPGS, PEG400 and water. In making the first formulation, 100 mg of paclitaxel is added to 400 μl of ethanol in a pre-weighed 20 ml scintillation vial. The mixture of paclitaxel and ethanol is vortexed and heated in a 60 degree C. bath for ten minutes. Once the drug is completely solubilized, 20 ml of PEG 400 is then added to make the final paclitaxel concentration 5 mg/ml. […] In a separate experiment, a series of 20 ml scintillation vials containing Vitamin E TPGS are heated or warmed up in a 50 degree C. water bath for ten minutes. Concurrently, distilled water is also warmed in a 50 degree C. water bath. […]

- percent drug content change (drug degradation) [1]: lessens drug degradation
SMILES: Cc1cc(C(C)(C)C)c(O)c(C(C)(C)C)c1 [BHT, butylated hydroxytoluene]

- concentration in the final solution (HPLC assay) ([2]; ethanol less than two percent, Vitamin E TPGS, water): 15 mg/mL
SMILES: CO[C@H]1C[C@@H]2CC[C@@H](C)[C@@](O)(O2)C(=O)C(=O)N2CCCC[C@H]2C(=O)O[C@H]([C@H](C)C[C@@H]2CC[C@@H](OC(=O)C(C)(CO)CO)[C@H](OC)C2)CC(=O)[C@H](C)/C=C(\C)[C@@H](O)[C@@H](OC)C(=O)[C@H](C)C[C@H](C)/C=C/C=C/C=C/1C [CCI-779]

- concentration in the 4 mg/ml PEG 200 formulation relative to the solubility in water ([2]; PEG 200 excipient, ethanol and water co-solvents): four hundred to about one thousand
- Sirolimus conc in artery tissue post-deploy ([3]; 20 min, hydrophilic coat No, Acetone/ethanol/water (50/40/10), BHT 5% (PKd)): 382 ± 190 ng sirolimus/mg tissue
- Sirolimus conc in artery tissue post-deploy ([3]; 20 min, hydrophilic coat No, IPA/Water (3.4/1), BHT 5% (PKb)): 218 ± 96 ng sirolimus/mg tissue
- Sirolimus conc in artery tissue post-deploy ([3]; 20 min, hydrophilic coat yes, IPA/Water (3.4/1), BHT 0% (PKc)): 219 ± 85 ng sirolimus/mg tissue
- Sirolimus conc in artery tissue post-deploy ([3]; 20 min, hydrophilic coat yes, IPA/Water (3.4/1), BHT 5% (Pka)): 313 ± 61 ng sirolimus/mg tissue
- Sirolimus conc in artery tissue post-deploy ([3]; 24 hr, hydrophilic coat No, Acetone/ethanol/water (50/40/10), BHT 5% (PKd)): 25 ± 20 ng sirolimus/mg tissue
- Sirolimus conc in artery tissue post-deploy ([3]; 24 hr, hydrophilic coat No, IPA/Water (3.4/1), BHT 5% (PKb)): 39 ± 37 ng sirolimus/mg tissue
- Sirolimus conc in artery tissue post-deploy ([3]; 24 hr, hydrophilic coat yes, IPA/Water (3.4/1), BHT 0% (PKc)): 16 ± 11 ng sirolimus/mg tissue
- Sirolimus conc in artery tissue post-deploy ([3]; 24 hr, hydrophilic coat yes, IPA/Water (3.4/1), BHT 5% (Pka)): 40.7 ± 14.6 ng sirolimus/mg tissue
- Sirolimus conc in artery tissue post-deploy ([3]; 8 day, hydrophilic coat No, Acetone/ethanol/water (50/40/10), BHT 5% (PKd)): 21 ± 36 ng sirolimus/mg tissue
- Sirolimus conc in artery tissue post-deploy ([3]; 8 day, hydrophilic coat No, IPA/Water (3.4/1), BHT 5% (PKb)): 14 ± 15 ng sirolimus/mg tissue
- Sirolimus conc in artery tissue post-deploy ([3]; 8 day, hydrophilic coat yes, IPA/Water (3.4/1), BHT 0% (PKc)): 16 ± 18 ng sirolimus/mg tissue
- Sirolimus conc in artery tissue post-deploy ([3]; 8 day, hydrophilic coat yes, IPA/Water (3.4/1), BHT 5% (Pka)): 9.8 ± 10.4 ng sirolimus/mg tissue
- Sirolimus conc in artery tissue post-deploy ([3]; 30 day, hydrophilic coat No, Acetone/ethanol/water (50/40/10), BHT 5% (PKd)): 12 ± 18 ng sirolimus/mg tissue
- Sirolimus conc in artery tissue post-deploy ([3]; 30 day, hydrophilic coat No, IPA/Water (3.4/1), BHT 5% (PKb)): 5.0 ± 4.8 ng sirolimus/mg tissue
- Sirolimus conc in artery tissue post-deploy ([3]; 30 day, hydrophilic coat yes, IPA/Water (3.4/1), BHT 0% (PKc)): 3.2 ± 2.8 ng sirolimus/mg tissue
- Sirolimus conc in artery tissue post-deploy ([3]; 30 day, hydrophilic coat yes, IPA/Water (3.4/1), BHT 5% (Pka)): 8.4 ± 5.7 ng sirolimus/mg tissue
SMILES: CO[C@H]1C[C@@H]2CC[C@@H](C)[C@@](O)(O2)C(=O)C(=O)N2CCCC[C@H]2C(=O)O[C@H]([C@H](C)C[C@@H]2CC[C@@H](O)[C@H](OC)C2)CC(=O)[C@H](C)/C=C(\C)[C@@H](O)[C@@H](OC)C(=O)[C@H](C)C[C@H](C)/C=C/C=C/C=C/1C [Rapamycin, rapamycin]

- fold higher than the solubility in water [4]: about 1000 fold
- concentration reached in true aqueous liquid formulations ([4]; PEG 400 / Vitamin E TPGS / ethanol / water): up to 2.5 mg/ml
SMILES: CC(=O)O[C@H]1C(=O)[C@@]2(C)[C@H]([C@H](OC(=O)c3ccccc3)[C@]3(O)C[C@H](OC(=O)[C@H](O)[C@@H](NC(=O)c4ccccc4)c4ccccc4)C(C)=C1C3(C)C)[C@]1(OC(C)=O)CO[C@@H]1C[C@@H]2O [paclitaxel]
